The values below come from PMC9603521, “WYBQ-4: a New Bactericidal Agent against Methicillin-Resistant Staphylococcus aureus” (Microbiology Spectrum, 2022).

SMILES strings stand for the structures. Like-named read-outs stand apart in the source and are kept apart here.

Assay [1] has as its system PBP2a. As to conditions: cited from earlier work; for Kd: read-out: ks.
Assay [2] deals with MRSA USA300. Briefly: TEM analysis of cell morphology / division defects. Format: cell-based, Staphylococcus aureus. Particulars: 4 μg/mL (1/2× MIC), 3 h. As to the method: MRSA USA300 was cultured overnight, diluted (1:100) into 20 mL of Trypticase soy broth (TSB) medium, and incubated at 30°C with shaking until the optical density at 600 nm (OD600) reached 0.3. […] Bacterial cells treated with 4 μg/mL ceftaroline fosamil (1/2 of their respective MIC) served as a control group. Untreated S. aureus served as a negative control. Bacteria were collected and washed in PBS and resuspended in 4% (vol/vol) glutaraldehyde fixation overnight. The fixed samples were further processed, and morphological changes in S. aureus were observed by TEM (JSM-7900F; JEOL, Japan).

In assay [3] the target is PBP2a (Staphylococcus aureus, UniProt P07944). Briefly: PBP2a acylation kinetics, nitrocefin competition assay. Format: biochemical, MRSA. The method, then:
Please refer to the supplemental material for the kinetic parameters of the interaction between WYBQ-4 and PBP2a and the determination of the rate of diacylation.
Supplementary Method. 1 Determination of the Kinetic Parameters for Interactions of […]
Determination of the kinetic parameters for interactions of WYBQ-4 with PBP2a The kinetic parameters of the interaction of WYBQ-4 with PBP2a were determined as previously described (1). The kinetics of the reaction between PBP2a of MRSA with WYBQ-4 was studied in homogeneous aqueous solution at 37℃ in 25 mM Hepes buffer, pH 7.0, containing 1 M NaCl and the inhibition of PBPs by β-lactams follows this kinetic scheme. […]
In this minimal scheme, E represents PBP2a, EI is the noncovalent preacylation complex, E-I is the covalent acyl-enzyme species, and P denotes the product of E-I hydrolysis and restoration of […]
The typical reactions of β-lactam could be monitored through competition with a chromophoric β-lactam, nitrocefin, or directly in certain cases by fluorescence intensity of protein. In this study, it is proposed to determine the secondary rate constants (k2/Ks) of WYBQ-4 by nitrocefin competition assay. The reaction was conducted in the above buffer, and the reaction system contained PBP2a (2.5 μM) and different concentrations of nitrocefin (20-120 μM). The reaction was carried out in a UV spectrophotometer (PERSEE T600, China) and the change in absorbance at 500 nm was […]
Apparent first-order rate constants for acylation by nitrocefin were determined by fitting the change in absorbance with time to eqn. (1):
A = A0 + ∆εn E0[(1 − exp (−kn∗ t)] + k0N0∆εn Ε0t (1) where A0 is the initial absorbance at 500 nm, ∆εn the change in molar absorption coefficient on nitrocefin hydrolysis (15900 M-1cm-1), E0 the initial enzyme concentration, N0 the initial nitrocefin concentration, kn* the (burst) pseudo-first-order rate constant for acylation of PBP2a by nitrocefin, and k0 the (line) second-order rate constant of a non-specific hydrolysis of nitrocefin in the presence of PBP2a. The second-order rate constants (kn) for acylation were calculated by fitting a plot of the apparent first-order rate constants (kn*) against the concentration of nitrocefin using a linear least-squares method.
Subsequently, nitrocefin (100 μM) was used as a reporter molecule to determine the apparent first-order rate constants for acylation of WYBQ-4 at different concentrations (0-500 μM) in competition assays. In this case, the change in absorbance at 500 nm with time was fitted to eqn.
Α = A + ∆ε E (k∗ ∕ (k∗ + k∗)(1 − exp (−(k∗ + k∗)t)) + k N ∆ε Ε t (2) […]

Assay [4] deals with MRSA USA300. In words: Mouse systemic infection model. Particulars: USA300 5 × 10^7 CFU, 150 mg/kg, tail intravenous injection at 0 and 3 h, 7-day. Format: in vivo, mice. As to the method:
The S. aureus-induced systemic infection model of mice (6-week-old female C57BL/6J mice) was established as previously described ([46]). […] The mice infected in the same way were treated with physiological saline as an infection control group. The mock group was not infected with S. aureus, and the 7-day mortality of the mice in each group was calculated.

Assay [5] relates to MRSA USA300. Briefly: Mouse lung infection model, bacterial load and histopathology. Type of assay: in vivo, mice. Particulars: mouse pneumonia, USA300; after treatment. The method, then:
The mice were challenged with 1 × 10^8 CFU of MRSA USA300 to assess bacterial load and pathological changes. The dose and manner of administration in mice were consistent with the survival experiments. In addition, the mice treated with ceftaroline fosamil at 75 and 37.5 mg/kg were used as control groups. At 48 h postinfection, mice were euthanized, and the left lungs were aseptically removed, weighed, and homogenized. Then, the lung tissues were homogenized and serially diluted for CFU counts. The right lungs were fixed with 10% formalin, embedded in paraffin, thin-sectioned, subjected to conventional hematoxylin and eosin (H&E) staining, and then observed using an optical microscope.

In assay [6] the test system is MRSA USA300. In words: Mouse lung infection model, survival. Type of assay: in vivo, mice. Particulars: mouse pneumonia, USA300 2 × 10^8 CFU, 12-h intervals, within 72 h. The method, then: The animal experiments were performed using 6-week-old male C57BL/6J mice, and the mouse model of lung infection caused by MRSA USA300 was established as previously described ([43], [44]). For the survival rate, mice (10 per group) were infected with MRSA USA300 (2 × 10^8 CFU per mouse). After 2 h of infection, mice were given WYBQ-4 via subcutaneous injection and reinjected at 12-h intervals, whereas mice were treated with ceftaroline fosamil at the same doses and served as positive controls. Mice injected with only MRSA USA300 were used as a negative control. Survival of mice was recorded within 72 h, and survival rates were calculated.

A further assay concerns MSSA ATCC 29213. Briefly: Postantibiotic effect (viable plate count). Type of assay: cell-based, Staphylococcus aureus. As to conditions: 1 h exposure. The method, then:
The postantibiotic effect (PAE) of WYBQ-4 against MSSA 29213 was determined in MHB agar using the viable plate count method ([39]). […] After incubation at 37°C for 1 h, WYBQ-4 was removed by centrifugation and washing with phosphate-buffered saline (PBS). Subsequently, fresh MHB medium was added to resuspend the bacteria, and the mixture was incubated at 37°C with shaking. The number of colonies was counted by taking 10 μL of bacteria at 1-h intervals and applying them to BHI agar plates after appropriate dilution. PAE duration was calculated as follows: time (h) for bacteria to return to log-phase growth after drug treatment – time (h) for the control group to return to log-phase growth ([40]).

Assay [7] concerns PBP2a. As to conditions: as reported; cited from earlier work.

Chain of PBP2a (Staphylococcus aureus, UniProt P07944) (P07944 whole entry): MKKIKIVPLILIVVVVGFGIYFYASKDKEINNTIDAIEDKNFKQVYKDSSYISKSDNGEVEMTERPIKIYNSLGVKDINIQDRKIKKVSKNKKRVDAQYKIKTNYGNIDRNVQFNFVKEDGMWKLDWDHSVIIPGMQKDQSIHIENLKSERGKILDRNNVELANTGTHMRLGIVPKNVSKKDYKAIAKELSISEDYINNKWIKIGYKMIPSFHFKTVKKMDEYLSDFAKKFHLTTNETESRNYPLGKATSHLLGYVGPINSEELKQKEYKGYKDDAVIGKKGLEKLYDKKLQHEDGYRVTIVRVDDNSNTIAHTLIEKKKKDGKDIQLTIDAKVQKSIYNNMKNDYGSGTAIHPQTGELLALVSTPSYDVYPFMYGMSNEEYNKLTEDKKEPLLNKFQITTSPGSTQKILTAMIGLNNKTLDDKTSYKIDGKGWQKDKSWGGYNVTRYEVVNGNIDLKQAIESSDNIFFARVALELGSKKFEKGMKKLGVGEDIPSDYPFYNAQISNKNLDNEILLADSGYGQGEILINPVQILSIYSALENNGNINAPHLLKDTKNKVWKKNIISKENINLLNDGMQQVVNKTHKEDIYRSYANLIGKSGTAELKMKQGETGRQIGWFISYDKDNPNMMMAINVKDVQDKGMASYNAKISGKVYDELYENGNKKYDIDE

As to `CC1(C)S[C@@H]2[C@H](NC(=O)[C@H](N)c3ccccc3)C(=O)N2[C@H]1C(=O)O` [Ampicillin], in the assay with PBP2a [1] (PBP2a), the k2 is 3.4 ± 0.1 s^–1 × 10^3, the k2/ks is given as 5.0 ± 1.0 M^–1s^–1, the k3 was 3.2 ± 0.1 s^–1 × 10^6 and the Kd was 668 ± 124 µM.

For the molecule `CCO/N=C(\C(=O)N[C@@H]1C(=O)N2C(C(=O)[O-])=C(Sc3nc(-c4cc[n+](C)cc4)cs3)CS[C@H]12)c1nsc(N)n1` [Ceftaroline], the k2/ks is on record as 4,500 ± 640 M^–1s^–1 in the assay on PBP2a [1] (PBP2a acylation) and 4,500 M^–1s^–1 with PBP2a [1] (PBP2a acylation, listed as ceftaroline). The Kd at PBP2a [1] (PBP2a) is 20 ± 4 µM. The “Percentage of defective cells (thin cell walls)” value in the assay on MRSA USA300 [2] is listed as 71.9%.

In the case of `CC(C)(O/N=C(\C(=O)N[C@@H]1C(=O)N2C(C(=O)[O-])=C(C[n+]3ccccc3)CS[C@H]12)c1csc(N)n1)C(=O)O` [Ceftazidime], in the assay on PBP2a [1] (PBP2a), the k2 is recorded as 1.0 ± 0.1 s^–1 × 10^3, the k2/ks was 1.5 ± 0.3 M^–1s^–1, the k3 was 3.2 ± 0.2 s^–1 × 10^6 and the Kd is 671 ± 116 µM.

As for `O=C(Cc1cccs1)N[C@@H]1C(=O)N2C(C(=O)O)=C(/C=C/c3ccc([N+](=O)[O-])cc3[N+](=O)[O-])CS[C@H]12` [Nitrocefin], in the assay with PBP2a [1] (PBP2a), the k2 is reported as 3.7 ± 0.3 s^–1 × 10^3, the k2/ks is reported as 19.0 ± 3.0 M^–1s^–1, the k3 is reported as 7.2 ± 0.1 s^–1 × 10^6 and the Kd is 192 ± 24 µM. Further, the “primary reaction rate constant, kn*” value at PBP2a [3] (100 μM nitrocefin, acylation of PBP2a) is “approximately 0.05 s^−1”. Moreover, at PBP2a [3] (in the presence of PBP2a), the “secondary rate constant, k0, for the nonspecific hydrolysis of nitrocefin” value stood at 2.3 ± 0.14 M⁻¹ s⁻¹.

Molecule `CO/N=C(\C(=O)N[C@@H]1C(=O)N2C(C(=O)[O-])=C(C[N+]3(C)CCCC3)CS[C@H]12)c1csc(N)n1` [cefepime] gave a survival rate in the assay on MRSA USA300 [4] of 40%. Further, in the assay on PBP2a [1] (PBP2a), the k2 is 1.5 ± 0.1 s^–1 × 10^3, the k2/ks is given as 0.9 ± 0.1 M^–1s^–1 and the k3 was 5.9 ± 0.5 s^–1 × 10^6.

As for `CCO/N=C(\C(=O)N[C@@H]1C(=O)N2C(C(=O)[O-])=C(Sc3nc(-c4cc[n+](C)cc4)cs3)CS[C@H]12)c1nsc(NP(=O)(O)O)n1` [ceftaroline fosamil, reference compound], the “inflammatory signs of lung tissue (H&E histopathology)” value with MRSA USA300 [5] is “significantly reduced”. In the assay with MRSA USA300 [2], the “Asymmetry of bacterial division (number of cells)” value is given as 41, the “Distortion of septa (number of cells)” value stood at 31, the “Percentage of defective cells (asymmetry of bacterial division)” value came out at 46.1 C % and the “Percentage of defective cells (distortion of septa)” value is recorded as 34.8 B %. Further, in the assay with MRSA USA300 [2], the “Percentage of defective cells (thin cell walls)” value worked out at 71.9 C % and the “Thin cell walls (number of cells)” value turned out to be 64. Also, the survival rate in the assay on MRSA USA300 [6] (37.5 mg/kg subcutaneous) is on record as 26.67%. The survival rate in the assay on MRSA USA300 [6] (75 mg/kg subcutaneous) was determined as 76.67%.

As for `CO[C@@]1(NC(=O)C(C(=O)O)c2ccc(O)cc2)C(=O)N2C(C(=O)O)=C(CSc3nnnn3C)CO[C@@H]21` (some centres unmarked) [moxalactam, reference compound], in the assay with MRSA USA300 [4], the survival rate is 50%. The PAE is on record as 1 h with MSSA ATCC 29213 (2× MIC) and 2.5 h with MSSA ATCC 29213 (8× MIC).

Turning to `Cc1onc(-c2ccccc2)c1C(=O)N[C@@H]1C(=O)N2[C@@H]1SC(C)(C)[C@@H]2C(=O)O` [oxacillin], in the assay on PBP2a [7], the “IC50 for PBP2a” value was 408 ± 6 µg/mL.
